Our source for the inhibition values is ChEMBL document CHEMBL1153121, “2-Arylbenzoxazoles as CETP inhibitors: Substitution of the benzoxazole moiety” (Bioorg Med Chem Lett, 2010).

Structures are written as SMILES.

For the test, the target named is Cholesteryl ester transfer protein (Homo sapiens) (UniProt P11597). The test is described as follows: inhibition of human CETP assessed as cholesteryl ester transfer by fluorescence transfer assay relative to control. The arrangement: concentration or dose not given beside the values. The note with it: concentration not given here.
Cholesteryl ester transfer protein (Homo sapiens), sequence (P11597 whole entry, looked up): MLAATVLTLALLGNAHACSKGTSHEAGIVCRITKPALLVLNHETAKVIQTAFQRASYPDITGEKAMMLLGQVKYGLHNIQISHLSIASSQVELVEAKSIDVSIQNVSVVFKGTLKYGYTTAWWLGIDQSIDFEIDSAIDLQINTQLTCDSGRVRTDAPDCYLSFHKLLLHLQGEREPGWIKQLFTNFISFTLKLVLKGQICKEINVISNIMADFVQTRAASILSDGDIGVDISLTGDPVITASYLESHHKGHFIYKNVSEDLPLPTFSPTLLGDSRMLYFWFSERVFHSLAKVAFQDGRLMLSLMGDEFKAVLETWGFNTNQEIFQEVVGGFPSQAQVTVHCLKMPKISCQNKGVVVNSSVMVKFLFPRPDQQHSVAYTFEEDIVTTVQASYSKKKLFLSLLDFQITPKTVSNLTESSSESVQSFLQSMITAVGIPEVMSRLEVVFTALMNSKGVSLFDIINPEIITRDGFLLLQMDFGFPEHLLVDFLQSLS
As for `Cc1ccc2nc(-c3ccc(NC(=O)COc4ccccc4C)cc3)oc2c1`, the inhibition amounted to 34%.
For `Cc1ccccc1OCC(=O)Nc1ccc(-c2nc3cc([N+](=O)[O-])ccc3o2)cc1`, the inhibition worked out at 79%.
Take `Cc1ccccc1OCC(=O)Nc1ccc(-c2nc3ccc(F)cc3o2)cc1`: the inhibition turned out to be 50%.
On to `Cc1ccccc1OCC(=O)Nc1ccc(-c2nc3cccc(Cl)c3o2)cc1`, for which the inhibition turned out to be 71%.
Turning to `Cc1ccccc1OCC(=O)Nc1ccc(-c2nc3c([N+](=O)[O-])cccc3o2)cc1`, the inhibition was determined as 42%.
`Cc1ccccc1OCC(=O)Nc1ccc(-c2nc3ccc([N+](=O)[O-])cc3o2)cc1`: the inhibition stood at 71%.
As to `Cc1ccccc1OCC(=O)Nc1ccc(-c2nc3cccc(F)c3o2)cc1`, the inhibition is 36%.
Regarding `Cc1ccc2oc(-c3ccc(NC(=O)COc4ccccc4C)cc3)nc2c1`, the inhibition turned out to be 89%.
